Some test systems named below: CCRF-CEM; COLO 205; DU-145; HL-60; HOP-92; IGROV-1; MCF7; MDA-MB-231; MDA-MB-435; MDA-N; NCI-H23; NCI-H460; PC-3; SF-268; SF-539; SK-MEL-2; SN12C; SNB-75; UACC-62; UO-31.
Test in all cases: NCI-60 cell line screen, 48 h

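A five-concentration, 48-hour dose response in 96-well plates underlies each endpoint, interpolated linearly between surrounding concentrations. GI50 = concentration required for 50% inhibition of growth.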 Calls of active or inactive are those of the source. Rule as the data show it: active = GI50 up to about 1.1 µM and inactive = higher. A value given as a limit tells only on which side of the number the result lay.

Take `CC1CCN(CC(=O)N2c3ccccc3Sc3cc4ccccc4cc32)CC1`: the GI50 was 84.7 µM (inactive) with CCRF-CEM; > 100 µM (inactive) with COLO 205; > 100 µM (inactive) in the test with DU-145; 24.7 µM (inactive) with HL-60; > 100 µM (inactive) in the test on HOP-92; > 100 µM (inactive) with IGROV-1. The GI50 was 47.5 µM (inactive) in the test with MCF7; > 100 µM (inactive) in the test on MDA-MB-231; > 100 µM (inactive) with MDA-MB-435; > 100 µM (inactive) with MDA-N; > 100 µM (inactive) in the test on NCI-H23; 37.5 µM (inactive) in the test with NCI-H460. Besides, the GI50 is > 100 µM (inactive) with PC-3; > 100 µM (inactive) with SF-268; > 100 µM (inactive) with SF-539; > 100 µM (inactive) with SK-MEL-2; 38.7 µM (inactive) with SN12C; > 100 µM (inactive) in the test on SNB-75. The GI50 in the test with UACC-62 and in the test on UO-31 was > 100 µM (inactive) throughout.
As for `C=C1C(=O)O[C@@H]2CC(CO)=C([C@@H](C)CCCO)[C@@H](OC(=O)/C(C)=C\C)[C@H]12`, the GI50 in the test with CCRF-CEM was 2.29 µM (inactive); in the test on COLO 205 it was 14.5 µM (inactive); in the test with DU-145, 8.71 µM (inactive); in the test with HL-60 it was 1.83 µM (inactive); in the test with HOP-92, 19.6 µM (inactive); in the test on IGROV-1, 14.5 µM (inactive). The GI50 is 10.2 µM (inactive) in the test with MCF7; 24.9 µM (inactive) with MDA-MB-231; 15.8 µM (inactive) in the test with MDA-MB-435; 15.1 µM (inactive) in the test on MDA-N; 13.3 µM (inactive) in the test on NCI-H23; 9.98 µM (inactive) in the test on NCI-H460. Besides, the GI50 in the test with PC-3 is 16 µM (inactive); in the test with SF-268, 15.6 µM (inactive); with SF-539 it was 22.2 µM (inactive); in the test on SK-MEL-2, 20.9 µM (inactive); in the test on SN12C it was 16.2 µM (inactive); in the test with SNB-75, 27.2 µM (inactive). Moreover, the GI50 was 16 µM (inactive) with UACC-62 and 16.8 µM (inactive) with UO-31.
On to `CC(=O)c1ccc2c(c1)CC1(C2)Cc2cc3c(cc2C1)C(=O)CC3` (stereo not given), for which the GI50 was 0.65 µM (active) with CCRF-CEM; 0.344 µM (active) in the test with COLO 205; 1.4 µM (inactive) in the test with DU-145; 0.76 µM (active) in the test with HL-60; 4.21 µM (inactive) in the test on HOP-92; 2.67 µM (inactive) in the test with IGROV-1. The GI50 is 0.429 µM (active) with MCF7; 2.51 µM (inactive) in the test on MDA-MB-231; 0.242 µM (active) in the test with MDA-MB-435; 0.207 µM (active) in the test with MDA-N; 3.06 µM (inactive) with NCI-H23; 0.453 µM (active) in the test with NCI-H460. The GI50 in the test on PC-3 is 3.13 µM (inactive); in the test with SF-268, 3.15 µM (inactive); in the test with SF-539, 0.733 µM (active); in the test with SK-MEL-2 it was 0.356 µM (active); in the test on SN12C, 4.25 µM (inactive); in the test with SNB-75 it was 32 µM (inactive). Further, the GI50 was 3.29 µM (inactive) with UACC-62 and 9.53 µM (inactive) in the test on UO-31.
For the molecule `Cc1cc(/N=C/c2ccc(C#N)cc2)n(-c2ccccc2)n1`, the GI50 was 30.8 µM (inactive) in the test with CCRF-CEM; 31.3 µM (inactive) in the test on COLO 205; > 100 µM (inactive) in the test on DU-145; 20.1 µM (inactive) in the test with HL-60; > 100 µM (inactive) in the test with HOP-92; 68.9 µM (inactive) in the test with IGROV-1. The GI50 with MCF7 is 41.1 µM (inactive); with MDA-MB-231, > 100 µM (inactive); with MDA-MB-435 it was 37 µM (inactive); with MDA-N, 37.7 µM (inactive); with NCI-H23, 56.1 µM (inactive); in the test on NCI-H460 it was > 100 µM (inactive). Further, the GI50 in the test with PC-3 was 89.1 µM (inactive); in the test with SF-268, 48.5 µM (inactive); in the test on SF-539 it was 99.3 µM (inactive); in the test on SK-MEL-2, > 100 µM (inactive); in the test with SN12C, 82.2 µM (inactive); with SNB-75, 57 µM (inactive). The GI50 is 80.4 µM (inactive) with UACC-62 and > 100 µM (inactive) in the test with UO-31.
As for `c1ccc2c(c1)[C@@H]1O[C@@H]1[C@@]13O[C@@]21[C@H]1O[C@H]1c1ccccc13`, the GI50 in the test on CCRF-CEM was 4.48 µM (inactive); with COLO 205, 15.7 µM (inactive); with DU-145 it was 15.3 µM (inactive); with HL-60 it was 13.3 µM (inactive); in the test with HOP-92 it was 9.89 µM (inactive); in the test with IGROV-1, 12.2 µM (inactive). For the same molecule, the GI50 is 10.1 µM (inactive) in the test with MCF7; 15.8 µM (inactive) in the test on MDA-MB-231; 13.7 µM (inactive) with MDA-MB-435; 15.6 µM (inactive) in the test with MDA-N; 14 µM (inactive) in the test with NCI-H23; 14.7 µM (inactive) with NCI-H460. In addition, the GI50 was 13.1 µM (inactive) with PC-3; 13.7 µM (inactive) in the test on SF-268; 16.5 µM (inactive) with SF-539; 14.7 µM (inactive) in the test on SK-MEL-2; 17.7 µM (inactive) with SN12C; 12.9 µM (inactive) in the test with SNB-75. For the same molecule, the values for the GI50 in the test on UACC-62 and in the test with UO-31 were 12.2 µM (inactive) and 33.4 µM (inactive), respectively.
As for `N#CC(NC12CC3CC(CC(C3)C1)C2)c1ccc2c(c1)OCO2` (stereo not given), the GI50 in the test with CCRF-CEM was > 100 µM (inactive); with COLO 205 it was > 100 µM (inactive); in the test on DU-145 it was > 100 µM (inactive); in the test on HL-60, > 100 µM (inactive); with HOP-92, 89.1 µM (inactive); in the test on IGROV-1, > 100 µM (inactive). The GI50 in the test with MCF7, with MDA-MB-231, with MDA-MB-435, with MDA-N, in the test on NCI-H23 and in the test on NCI-H460 was > 100 µM (inactive) in each case. Also, the GI50 in the test on PC-3, in the test on SF-268, in the test with SF-539, in the test with SK-MEL-2, with SN12C and with SNB-75 was > 100 µM (inactive) in each case. For the same molecule, the GI50 with UACC-62 and in the test on UO-31 was > 100 µM (inactive) throughout.
In the case of `COc1cc(NS(C)(=O)=O)ccc1NCc1c[nH]c2ccc3nc(C)ccc3c12`, the GI50 was 17.7 µM (inactive) with CCRF-CEM; 55 µM (inactive) with COLO 205; 32.1 µM (inactive) in the test with DU-145; 8.45 µM (inactive) in the test with HL-60; 40.6 µM (inactive) in the test with HOP-92; 73.6 µM (inactive) in the test with IGROV-1. The GI50 in the test on MCF7 is 36.1 µM (inactive); with MDA-MB-231 it was 61.1 µM (inactive); in the test on MDA-MB-435 it was 30.2 µM (inactive); with MDA-N, 41.2 µM (inactive); with NCI-H23, 15.8 µM (inactive); in the test with NCI-H460 it was 68.1 µM (inactive). Besides, the GI50 in the test with PC-3 is 43.9 µM (inactive); with SF-268, 28.1 µM (inactive); in the test on SF-539 it was 78.2 µM (inactive); in the test on SK-MEL-2 it was 23.8 µM (inactive); in the test with SN12C it was 60.5 µM (inactive); with SNB-75 it was 22.8 µM (inactive). Moreover, the GI50 in the test on UACC-62 is 40.6 µM (inactive); in the test on UO-31, 28.6 µM (inactive).
For the molecule `Nc1[nH]c(Nc2ccc(Cl)c(Cl)c2)nc2ncnc1-2`, the GI50 with CCRF-CEM is 16.1 µM (inactive); in the test with COLO 205, 20.7 µM (inactive); with DU-145 it was 7.41 µM (inactive); in the test on HL-60, 6.67 µM (inactive); in the test with HOP-92, 16.6 µM (inactive); in the test on IGROV-1, 4.76 µM (inactive). The GI50 with MCF7 was 14.6 µM (inactive); in the test with MDA-MB-231, 14 µM (inactive); in the test with MDA-MB-435 it was 16.6 µM (inactive); in the test with MDA-N, 17.5 µM (inactive); in the test with NCI-H23 it was 18.3 µM (inactive); with NCI-H460 it was 15.5 µM (inactive). In addition, the GI50 in the test on PC-3 was 12 µM (inactive); with SF-268 it was 11 µM (inactive); in the test on SF-539 it was 12.4 µM (inactive); in the test on SK-MEL-2, 17.5 µM (inactive); in the test on SN12C it was 23.6 µM (inactive); in the test with SNB-75, 8.36 µM (inactive). For the same molecule, the GI50 in the test with UACC-62 is 11.9 µM (inactive); in the test with UO-31 it was 8.73 µM (inactive).
In the case of `C=C1CC(Cn2cc(C)c(=O)[nH]c2=O)(c2ccc(Cl)cc2)OC1=O` (stereo not given), the GI50 is 0.855 µM (active) with CCRF-CEM; 1.42 µM (inactive) with COLO 205; 4.65 µM (inactive) in the test on DU-145; 0.863 µM (active) in the test on HL-60; 0.438 µM (active) in the test on HOP-92; 1.53 µM (inactive) in the test with IGROV-1. Further, the GI50 in the test with MCF7 is 0.933 µM (active); with MDA-MB-231, 3.05 µM (inactive); with MDA-MB-435 it was 3.85 µM (inactive); with MDA-N, 2.99 µM (inactive); with NCI-H23, 3.3 µM (inactive); in the test with NCI-H460, 15.8 µM (inactive). The GI50 in the test on PC-3 is 3.08 µM (inactive); in the test on SF-268, 17.1 µM (inactive); in the test with SF-539, 10.9 µM (inactive); with SK-MEL-2, 2.12 µM (inactive); in the test with SN12C, 7.05 µM (inactive); in the test with SNB-75, 10.7 µM (inactive). The results for the GI50 with UACC-62 and in the test with UO-31 were 2.44 µM (inactive) and 12.9 µM (inactive), respectively.
As to `Cc1ccc2c(ccc3[nH]cc(CNc4ccc(NS(C)(=O)=O)cc4)c32)n1`, the GI50 is 23.6 µM (inactive) in the test on CCRF-CEM; 29 µM (inactive) with COLO 205; 18.7 µM (inactive) in the test with DU-145; 27.4 µM (inactive) in the test on HL-60; 26.7 µM (inactive) in the test on HOP-92; 27.8 µM (inactive) in the test on IGROV-1. For the same molecule, the GI50 is 19.3 µM (inactive) in the test with MCF7; 25.3 µM (inactive) in the test with MDA-MB-231; 16.8 µM (inactive) in the test with MDA-MB-435; 17.5 µM (inactive) in the test with MDA-N; 18.7 µM (inactive) in the test with NCI-H23; 18.9 µM (inactive) in the test on NCI-H460. In addition, the GI50 was 25 µM (inactive) in the test with PC-3; 23 µM (inactive) in the test on SF-268; 22.9 µM (inactive) in the test with SF-539; 18.6 µM (inactive) in the test on SK-MEL-2; 27.2 µM (inactive) with SN12C; 18.8 µM (inactive) with SNB-75. The GI50 in the test with UACC-62 was 16.1 µM (inactive); in the test with UO-31, 37.7 µM (inactive).

Source of the values: ChEMBL document CHEMBL1201862, “PubChem BioAssay data set” (2004).
